Experimental data as given in publication PMC6792352, “Limited Chemical Structural Diversity Found to Modulate Thyroid Hormone Receptor in the Tox21 Chemical Library” (Environmental Health Perspectives, 2019).
Structures can show the parent of a compound that is named as a salt.

Assay: in vitro
Conditions: rat, gh3-tre-luc cells, AC50 (uM) modified / 1000

Row | SMILES | CC50 at 24 h
1 | CC(=O)c1ccccn1 [2-Acetylpyridine] | > 90 µM
2 | CN1CCN(c2c(F)cc3c(=O)c(C(=O)O)cn4c3c2OCN4C)CC1 [Marbofloxacin] | > 50 µM
3 | Sc1nc2ccccc2s1 [2-Mercaptobenzothiazole] | > 50 µM
4 | CCCCCCCCCCCCOC(=O)c1ccc(O)cc1 [Dodecylparaben] | 26 µM
5 | COc1c2c(cc3c1OCO3)CCN(C)C2 [Hydrocotarnine hydrobromide] | > 20 µM
6 | CCOc1cc(OCC)c(C(C)=O)cc1OCC [2,4,5-Triethoxyacetophenone] | 35.3 µM
7 | COC(=O)CCCCC(=O)OC [Dimethyl adipate] | > 90 µM
8 | CO[C@H](C(=O)[C@@H](O)[C@@H](C)O)[C@@H]1Cc2cc3cc(O[C@H]4C[C@@H](O[C@H]5C[C@@H](O)[C@H](O)[C@@H](C)O5)[C@H](O)[C@@H](C)O4)c(C)c(O)c3c(O)c2C(=O)[C@H]1O[C@H]1C[C@@H](O[C@H]2C[C@@H](O[C@H]3C[C@](C)(O)[C@H](O)[C@@H](C)O3)[C@@H](O)[C@@H](C)O2)[C@H](O)[C@@H](C)O1 [Plicamycin] | 0.413 µM
9 | CCCCCCCCCCCCCCCCCCO [1-Octadecanol] | > 50 µM
10 | NC(Cc1ccc(Cl)cc1)C(=O)O (centres unmarked) [Fenclonine] | > 50 µM
11 | CCOC(=O)c1ccc(C2CCC(NC[C@H](O)COc3ccc(O)c(NS(C)(=O)=O)c3)CC2)cc1 (some centres unmarked) [SAR 150640] | 34.8 µM
12 | N[C@@H](C(=O)N[C@@H]1C(=O)N2C(C(=O)O)=C(Cl)CS[C@H]12)c1ccccc1 [Cefaclor] | > 50 µM
13 | CN1CC[C@H](c2c(O)cc(O)c3c(=O)cc(-c4ccccc4Cl)oc23)[C@H](O)C1 [Flavopiridol hydrochloride] | 0.302 µM
14 | CC(CN(C)C)CN1c2ccccc2Sc2ccccc21 (centres unmarked) [Trimeprazine tartrate] | 4.36 µM
15 | Cc1cc(Br)ccc1NC(=O)CCl [2-Chloro-N-(2-methyl-4-bromophenyl)acetamide] | 22.1 µM
16 | O=C(Oc1ccccc1)c1ccc2ccccc2c1O [Phenyl 1-hydroxy-2-naphthoate] | > 90 µM
17 | Cc1ncc2n1-c1ccc(Cl)cc1C(c1ccccc1F)=NC2 [Midazolam hydrochloride] | > 50 µM
18 | NC(=O)NO [Hydroxyurea] | > 90 µM
19 | COC(=O)CCC[N+](C)(C)C [Carpronium chloride] | > 50 µM
20 | CSc1ccc(/C=C2/C(C)=C(CC(=O)O)c3cc(F)ccc32)cc1 [Sulindac sulfide] | > 50 µM

Row | SMILES | CC50 at 24 h
21 | COc1ccccc1N1CCN(CC(O)COc2cccc3ccccc23)CC1 (centres unmarked) [Naftopidil] | 23.4 µM
22 | CCCCCCCC(=O)N(C)C [N,N-Dimethyloctanamide] | > 90 µM
23 | NC=O [Formamide] | > 100 µM
24 | Cc1c(Cl)cccc1Nc1ccccc1C(=O)O [Tolfenamic acid] | > 50 µM
25 | CCc1nnc(NS(=O)(=O)c2ccc(N)cc2)s1 [Sulfaethidole] | > 50 µM
26 | Cc1cc(C)cc([N+](=O)[O-])c1 [1,3-Dimethyl-5-nitrobenzene] | > 90 µM
27 | CC1(S(=O)(=O)O)CC(=O)c2ccccc2C1=O (centres unmarked) [Menadione sodium bisulfite] | 12.2 µM
28 | CCCOC(OCCC)OCCC [Tripropyl orthoformate] | > 90 µM
29 | O=C(CS)OCCOC(=O)CS [Ethane-1,2-diyl bis(sulfanylacetate)] | > 90 µM
30 | CC(=O)O[C@H]1CC[C@H]2[C@@H]3CCC4=CC(=O)CCC4=C3C=C[C@]12C [Trenbolone acetate] | > 50 µM
31 | ClC(Cl)c1ccccc1 [Benzal chloride] | > 90 µM
32 | O=C1NC(=O)[C@@]2(CCOc3ccc(F)cc32)N1 [Sorbinil] | > 50 µM
33 | c1ccc(CN(Cc2ccccc2)Cc2ccccc2)cc1 [Tribenzylamine] | > 90 µM
34 | CCCC[C@H]1CN(CC2CCOCC2)C(=O)OC12CCN(C1(C)CCN(C(=O)c3c(C)ncnc3C)CC1)CC2 [PharmaGSID_48521] | > 80 µM
35 | CN(C)CCc1c[nH]c2ccc(CS(=O)(=O)N3CCCC3)cc12 [Almotriptan] | > 50 µM
36 | BrCBr [Dibromomethane] | > 90 µM
37 | OC(Cn1cncn1)(Cn1cncn1)c1ccc(F)cc1F [Fluconazole] | > 90 µM
38 | N#Cc1cccc(C#N)c1 [1,3-Benzenedicarbonitrile] | > 90 µM
39 | NC(=O)N1c2ccccc2CC(=O)c2ccccc21 [Oxcarbazepine] | 14.5 µM
40 | CCCCCCCCCOS(=O)(=O)O [Sulfuric acid, monononyl ester, sodium salt] | > 90 µM

Row | SMILES | CC50 at 24 h
41 | CCC1(c2ccccc2)C(=O)NC(=O)NC1=O [Phenobarbital] | > 90 µM
42 | CNS(=O)(=O)Cc1ccc2[nH]cc(CCN(C)C)c2c1 [Sumatriptan] | > 50 µM
43 | CC(C)NC(=O)c1ccccc1N [2-Amino-N-(1-methylethyl)benzamide] | > 90 µM
44 | O=C(Cl)c1ccc(F)c(Cl)c1 [3-Chloro-4-fluorobenzoyl chloride] | > 90 µM
45 | Cc1cc(S(=O)(=O)O)ccc1N=Nc1c(O)ccc2ccccc12 [C.I. Acid Orange 8, monosodium salt] | 19.3 µM
46 | CCCCC(O)(Cn1cncn1)c1ccc(Cl)cc1Cl (centres unmarked) [Hexaconazole] | 54.6 µM
47 | CCCC(=O)O[C@]1(C(=O)COC(=O)CC)CC[C@H]2[C@@H]3CCC4=CC(=O)CC[C@]4(C)[C@H]3[C@@H](O)C[C@@]21C [Hydrocortisone buteprate] | > 50 µM
48 | Oc1ccc(O)c2c(O)cccc12 [1,4,5-Trihydroxynaphthalene] | > 90 µM
49 | CC[C@@H](N)CO [(2R)-2-Aminobutan-1-ol] | > 100 µM
50 | Cc1c(C(C)C)c(=O)n(-c2ccccc2)n1C [Propyphenazone] | > 50 µM
51 | COc1ccc2[nH]c([S+]([O-])Cc3ncc(C)c(OC)c3C)nc2n1 (centres unmarked) [Tenatoprazole] | 41.8 µM
52 | CC(=O)Nc1c(I)c(C(=O)N[C@H]2C(O)O[C@H](CO)[C@@H](O)[C@@H]2O)c(I)c(N(C)C(C)=O)c1I (some centres unmarked) [Metrizamide] | > 20 µM
53 | CN1C(CSCC(F)(F)F)Nc2cc(Cl)c(S(N)(=O)=O)cc2S1(=O)=O (centres unmarked) [Polythiazide] | > 50 µM
54 | CCCCCCCCCCCCCOS(=O)(=O)O [Sodium tridecyl sulfate] | > 90 µM
55 | C=C(C)C(=O)OCCN(C)C [2-(Dimethylamino)ethyl methacrylate] | > 90 µM
56 | COC[C@@H](c1ccc(C(F)(F)F)cc1)N1CCN(C2(C)CCN(C(=O)c3c(C)ncnc3C)CC2)C[C@@H]1C [Vicriviroc maleate] | > 50 µM
57 | COc1ccc2[nH]cc(CCNC(C)=O)c2c1 [Melatonin] | > 90 µM
58 | CCCc1ccc(C(=O)O)cc1 [4-Propylbenzoic acid] | > 50 µM
59 | NCCOCCN [2,2'-Oxybis(ethylamine)] | > 90 µM

Same assay, conditions: rat, gh3-tre-luc cells, AC50 (uM) modified / 1000, Tox21_110001=Tox21_200129; viability, 1 nM T3 present, 24 h

Row | SMILES | CC50 at 24 h
60 | SCc1ccccc1 [Benzenemethanethiol] | > 90 µM

Same assay, conditions: rat, gh3-tre-luc cells, AC50 (uM) modified / 1000, Tox21_110001=Tox21_200571; viability, 1 nM T3 present, 24 h

Row | SMILES | CC50 at 24 h
61 | BrC(Br)C(Br)(Br)Br [Pentabromoethane] | 24.2 µM

Same assay, conditions: rat, gh3-tre-luc cells, AC50 (uM) modified / 1000, Tox21_110001=Tox21_200976; viability, 1 nM T3 present, 24 h

Row | SMILES | CC50 at 24 h
62 | C#CCO [Propargyl alcohol] | > 90 µM

Same assay, conditions: rat, gh3-tre-luc cells, AC50 (uM) modified / 1000, Tox21_110001=Tox21_201256; viability, 1 nM T3 present, 24 h

Row | SMILES | CC50 at 24 h
63 | Cc1ccccc1N [2-Methylaniline] | > 90 µM

Same assay, conditions: rat, gh3-tre-luc cells, AC50 (uM) modified / 1000, Tox21_110001=Tox21_201493; viability, 1 nM T3 present, 24 h

Row | SMILES | CC50 at 24 h
64 | O=NN(O)c1ccccc1 [Cupferron] | > 90 µM

Same assay, conditions: rat, gh3-tre-luc cells, AC50 (uM) modified / 1000, Tox21_110001=Tox21_202245; viability, 1 nM T3 present, 24 h

Row | SMILES | CC50 at 24 h
65 | OCCCCO [1,4-Butanediol] | > 90 µM
